# Reference: patent US10300451B2, “Method for generating an affinity reagent library” (priority 2013, dated 2019)
# Entries after “also recorded” stand apart in the source; their conditions may differ.
# Experiments:
# [1] = target: T1, αVβ6 (Homo sapiens, UniProt P06756+P18564); test: Inhibition of biotinylated-A20FMDV2 binding to αVβ6 expressing cells; assay type: cell-based; settings: scFv or peptide 0.1 and 1.0 μM; biotinylated A20FMDV2 10 nM
# T1 construct: A375puro endogenously express the RGD directed integrins α5β1, αVβ3, αVβ5 and αVβ8; expressed in transfected cells; host or cells: αVβ6-expressing cells; The method paragraph names no line
# T1 sequence (P06756 31-889 limits assumed): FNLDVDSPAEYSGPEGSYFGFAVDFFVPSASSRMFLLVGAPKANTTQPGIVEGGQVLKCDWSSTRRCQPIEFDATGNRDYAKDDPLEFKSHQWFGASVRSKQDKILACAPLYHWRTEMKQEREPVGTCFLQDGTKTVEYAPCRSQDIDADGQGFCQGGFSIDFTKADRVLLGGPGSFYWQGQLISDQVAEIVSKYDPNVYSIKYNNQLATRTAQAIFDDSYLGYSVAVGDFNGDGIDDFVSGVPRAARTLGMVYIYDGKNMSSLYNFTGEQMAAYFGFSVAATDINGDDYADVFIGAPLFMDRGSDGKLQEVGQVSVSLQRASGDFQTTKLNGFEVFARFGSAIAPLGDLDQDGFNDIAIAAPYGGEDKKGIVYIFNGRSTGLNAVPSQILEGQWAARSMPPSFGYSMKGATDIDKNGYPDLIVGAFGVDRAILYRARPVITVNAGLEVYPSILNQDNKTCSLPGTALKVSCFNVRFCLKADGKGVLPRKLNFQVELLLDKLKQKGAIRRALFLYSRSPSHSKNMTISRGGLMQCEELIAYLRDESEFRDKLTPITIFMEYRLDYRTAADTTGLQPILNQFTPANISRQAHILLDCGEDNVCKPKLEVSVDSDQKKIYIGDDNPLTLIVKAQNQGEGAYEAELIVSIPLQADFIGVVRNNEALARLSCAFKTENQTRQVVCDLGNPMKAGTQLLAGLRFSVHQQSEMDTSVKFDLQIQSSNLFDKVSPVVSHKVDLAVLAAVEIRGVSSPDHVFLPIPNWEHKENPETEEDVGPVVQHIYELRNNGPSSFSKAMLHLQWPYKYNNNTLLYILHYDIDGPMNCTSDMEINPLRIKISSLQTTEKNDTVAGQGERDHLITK
# T1 sequence (P06756 891-1048 limits assumed): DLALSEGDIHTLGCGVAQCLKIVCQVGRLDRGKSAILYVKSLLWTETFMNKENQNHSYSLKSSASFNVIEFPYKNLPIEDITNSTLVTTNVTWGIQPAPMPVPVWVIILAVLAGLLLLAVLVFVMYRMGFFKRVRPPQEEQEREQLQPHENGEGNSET
# T1 sequence (P18564 22-788): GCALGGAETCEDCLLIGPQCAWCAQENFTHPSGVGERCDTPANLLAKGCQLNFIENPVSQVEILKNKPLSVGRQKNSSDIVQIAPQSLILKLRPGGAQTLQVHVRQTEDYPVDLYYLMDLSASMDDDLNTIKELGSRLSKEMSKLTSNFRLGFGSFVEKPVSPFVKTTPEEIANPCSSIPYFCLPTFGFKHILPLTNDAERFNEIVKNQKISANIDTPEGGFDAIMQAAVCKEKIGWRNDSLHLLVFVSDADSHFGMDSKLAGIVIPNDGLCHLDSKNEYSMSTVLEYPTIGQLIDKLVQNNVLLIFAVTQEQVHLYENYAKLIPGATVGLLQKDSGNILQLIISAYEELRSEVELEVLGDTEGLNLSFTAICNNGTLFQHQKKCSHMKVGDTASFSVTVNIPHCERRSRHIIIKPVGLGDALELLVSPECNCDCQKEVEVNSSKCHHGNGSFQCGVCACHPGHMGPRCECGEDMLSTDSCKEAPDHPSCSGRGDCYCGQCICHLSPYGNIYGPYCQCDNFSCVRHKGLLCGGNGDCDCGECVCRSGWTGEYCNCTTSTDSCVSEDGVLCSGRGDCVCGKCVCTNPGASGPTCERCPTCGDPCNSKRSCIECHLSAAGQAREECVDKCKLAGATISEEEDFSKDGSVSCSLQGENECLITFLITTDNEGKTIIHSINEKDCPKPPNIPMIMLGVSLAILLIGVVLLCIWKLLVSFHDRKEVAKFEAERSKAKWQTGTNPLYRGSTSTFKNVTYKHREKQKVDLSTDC
# [2] = system: αVβ6-dependent adhesion of carcinoma cells to immobilised fibronectin; test: Picogreen adhesion assay on fibronectin; assay type: cell-based, human; settings: fibronectin 10 ug/ml
# Experimental: All adhesion assays were performed in quadruplicate and repeated at least 2-3 times. In a 96-well plate format, test wells were coated with Fibronectin (10 ug/ml/PBS) and negative control wells were coated with 0.1% BSA (bovine serum albumin)/PBS. After incubation at 37° C. for 1 hour, plates were washed in PBS thwice and blocked with 0.1% BSA/PBS for 30 mins at 37° C. Following a PBS rinse, cells were seeded into the wells, the plate resting on ice to avoid dehydration and to ensure an initial uniform temperature for the experiment. Purified scFv or peptide was added (25 ul) to the wells at the desired concentrations, before adding 1.5×10^4 cells (25 ul) per well. In some experiments, cells (1.5×10^4) were pre-treated with β1 blocking antibody AIIB2 at 10 ug/ml before seeding into test wells. To determine percentage adhesion, standard curves were generated by plating 0-2.5×10^4 cells in separate wells. After incubating plates at 37° C. for 30′ plates were washed twice in 1 mM CaCl2/0.5 mM MgCl2/PBS and transferred into −80° C. for 15 mins. Adherent cells were quantified using a Picogreen kit (Invitrogen) and analysed on a fluorescence reader (FLUOstar Optima, BMG Labtech Ltd, Bucks, UK).
# [3] = system: αVβ6-expressing cells; test: Internalisation assay (confocal microscopy); assay type: cell-based, human; settings: for intracellular localisation after incubation: 37° C. for 45 minutes, αVβ6-expressing cells; for cellular internalisation in αVβ6-expressing cells: 37° C., 0 and 45 minutes
# Experimental: In 24-well culture plates, 2×10^4 cells (DX3puro, DX3β6 or VB6) were seeded onto 13 mm diameter glass coverslips and allowed to incubate overnight at 37° C. in growth medium. Cells were washed thwice in serum free medium (SFM) and then scFv (4 uM) or biotinylated-CDR3-peptide (100 nM) diluted in SFM added on ice for 10 mins. After two ice-cold washes and a further 10 mins on ice with mouse anti-biotin antibody (10 ug/ml) pre-warmed media containing 10% FCS was added to the cells and incubated at 37° C. At 10 min intervals between 0-60 mins, cells were fixed in 2% HCHO in PBS and permeabilised with 0.1% TritonX-100 (PBS) for 3 mins. scFv was detected with mouse anti c-myc (1:100 dilution, clone 9E10; 30 mins, ambient temperature) and followed by while peptides were detected by rabbit anti-biotin IgG (1:200). Both peptide and scFv detected with anti-mouse Alexa488 for 30′. Nuclei were counter-labelled with 4′,6-diamidino-2-phenylindole (DAPI), coverslips mounted with Mowiol and samples examined by confocal microscopy (Zeiss LSM510, Welwyn Garden City).
# [4] = target: T2, cellular αVβ6 (Homo sapiens, UniProt P06756+P18564); test: Screening for integrin specificity by flow cytometry (A375Pβ6 vs A375Ppuro cells); assay type: cell-based
# T2 construct: A375puro endogenously express the RGD directed integrins α5β1, αVβ3, αVβ5 and αVβ8; expressed in transfected cells; host or cells: A375Pβ6 (αVβ6-positive), with A375Ppuro as the αVβ6-negative control
# T2 sequence (P06756 31-889 limits assumed): as the sequence (P06756 31-889 limits assumed) above
# T2 sequence (P06756 891-1048 limits assumed): as the sequence (P06756 891-1048 limits assumed) above
# T2 sequence (P18564 22-788): as the sequence (P18564 22-788) above
# Experimental: Purified scFv were tested for specificity for αVβ6 by flow cytometry using the isogenic pairs of cell lines, […] and A375Ppuro, which express similar levels of four RGD-binding integrins (αVβ3, αVβ5, αVβ8, α5β1) but only […] express αVβ6. Briefly, cells were detached with trypsin/EDTA, rinsed twice in ice-cold wash buffer (0.1% BSA/DMEM/0.1% NaN3) and 2×10^5 cells re-suspended in 50 μl of wash buffer per sample. In between all incubation steps, all samples were washed twice with wash buffer unless otherwise stated. Cells were incubated on ice for 1 hr with 0.1 or 1 uM purified scFv of peptide, washed twice. For scFv, cells were then incubated for 1 hr on ice with mouse anti-Myc antibody (clone 9E10, Santa Cruz) at 1:100. After washing, bound antibody was detected with anti-mouse IgG-Alexaflour 488 (1:250 for 1 h; Molecular Probes), on ice. Bound VH-CDR3 derived peptide were detected by rabbit anti-biotin IgG (1:200), followed by anti-rabbit IgG-Alexafluor 488 (1:250; Molecular Probes). Cells were analysed using the FACSCalibur (Beckton Dickinson). Cell expression of αVβ6 integrin was detected with mouse monoclonal antibody (clone 10D5, 10 μg/ml; Millipore) and non-specific (control) binding with non-immune class matched IgG.
Sequence,inhibition of binding of A20FMDV2 peptide to cellular αvβ6 [1],inhibition of αVβ6-dependent adhesion of carcinoma cells to immobilised fibronectin [2],intracellular localisation after incubation [3],cellular internalisation in αVβ6-expressing cells [3],cellular internalisation in αVβ6-negative cells [3],binding to αVβ6-expressing cells (flow cytometry) [4]
EPRGDLRTLAAREKRNFNETLARLQEKGI (Peptide sequence comprising RGD motif followed by a C-terminal alpha-helix or 3(10)-helix) [D25p],dose-dependent inhibition,inhibited; also recorded: significant concentration-dependent inhibition,nuclear localisation was not seen,Internalisation,No peptide internalization was observed,αVβ6-specific binding
QPRGDLRELAARSEAQLQEKGI (Peptide sequence comprising RGD motif followed by a C-terminal alpha-helix or 3(10)-helix) [D34p],dose-dependent inhibition,inhibited; also recorded: significant concentration-dependent inhibition,nuclear localisation was not seen,Internalisation,No peptide internalization was observed,αVβ6-specific binding
